The experiment addresses T1, angiotensin II type 1 receptor (Oryctolagus cuniculus, UniProt P34976).
T1 construct: By using a specimen of isolated rabbit blood vessels; from tissue; host or cells: rabbit thoracic aorta ring (New Zealand White, male)
T1 sequence (P34976 1-359): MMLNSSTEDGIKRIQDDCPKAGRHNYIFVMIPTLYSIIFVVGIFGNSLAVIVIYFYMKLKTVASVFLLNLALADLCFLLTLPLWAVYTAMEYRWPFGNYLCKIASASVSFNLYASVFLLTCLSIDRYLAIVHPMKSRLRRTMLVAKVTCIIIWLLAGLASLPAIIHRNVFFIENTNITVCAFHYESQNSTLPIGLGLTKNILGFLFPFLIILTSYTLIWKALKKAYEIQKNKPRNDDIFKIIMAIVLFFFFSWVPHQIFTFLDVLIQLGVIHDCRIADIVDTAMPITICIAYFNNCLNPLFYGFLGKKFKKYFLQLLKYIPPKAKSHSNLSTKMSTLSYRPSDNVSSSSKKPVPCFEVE
Put plainly: Angiotensin II antagonistic activity in isolated rabbit blood vessels. Particulars: angiotensin II (10 nM)-induced contraction of rabbit thoracic aorta ring. On the procedure:
By using a specimen of isolated rabbit blood vessels, antagonistic activity of the compounds of the invention against angiotensin II type 1 receptor was estimated from a dose-response curve of angiotensin II-induced blood vessel contraction.
During the measurement, the inside temperature of the magnus bath was maintained at 37° C. and the bath was continuously ventilated with a sufficient amount of mixed gas (95% O2 and 5% CO2). The angiotensin II-induced contraction was converted into a relative value (%) that is based on the angiotensin II (10 nM)-induced contraction in the absence of the compounds of each example. From the concentration-response curve obtained therefrom, 50% inhibition concentration (IC50 value) was calculated by using SAS Preclinical Package Ver5.0 (trade name, manufactured by SAS institute Japan Co., Tokyo, Japan), which is a statistical analysis program.

In turn, `CCCCc1nc(C)n(-c2ccccn2)c(=O)c1Cc1ccc(-c2ccccc2-c2nnn[nH]2)cc1` [Example 1, 5-{[2′-(1H-tetrazol-5-yl)biphenyl-4-yl]methyl}-6-butyl-2-methyl-3-(pyridin-2-yl)pyrimidin-4(3H)-one] returned an IC50 of 2.1 nM. For the molecule `CCCCc1nc(C)n(-c2ncccc2C(F)(F)F)c(=O)c1Cc1ccc(-c2ccccc2-c2nnn[nH]2)cc1` [Example 9, 5-{[2′-(1H-tetrazol-5-yl)biphenyl-4-yl]methyl}-6-butyl-2-methyl-3-[3-(trifluoromethyl)pyridin-2-yl]pyrimidin-4(3H)-one], the midpoint of inhibition, the IC50, lay at 14 nM.

On to `CCCCc1nc(C)n(-c2cccc(C(F)(F)F)n2)c(=O)c1Cc1ccc(-c2ccccc2-c2nnn[nH]2)cc1` [Example 12, 5-{[2′-(1H-tetrazol-5-yl)biphenyl-4-yl]methyl}-6-butyl-2-methyl-3-[6-(trifluoromethyl)pyridin-2-yl]pyrimidin-4(3H)-one], for which inhibition was half-maximal at 230 nM (IC50). Turning to `CCCCc1nc(C)n(-c2ccc([N+](=O)[O-])cn2)c(=O)c1Cc1ccc(-c2ccccc2-c2nnn[nH]2)cc1` [Example 14, 5-{[2′-(1H-tetrazol-5-yl)biphenyl-4-yl]methyl}-6-butyl-2-methyl-3-(5-nitropyridin-2-yl)pyrimidin-4 (3H)-one], the IC50 came to 546 nM. With `CCCCc1nc(C)n(-c2ncccn2)c(=O)c1Cc1ccc(-c2ccccc2-c2nnn[nH]2)cc1` [Example 17, 5-{[2′-(1H-tetrazol-5-yl)biphenyl-4-yl]methyl}-6-butyl-2-methyl-3-(pyrimidin-2-yl)pyrimidin-4 (3H)-one], 9.2 nM corresponded to half-maximal inhibition (IC50). Molecule `CCCCc1nc(C)n(-c2ncc(OC)cn2)c(=O)c1Cc1ccc(-c2ccccc2-c2nnn[nH]2)cc1` [Example 18, 5-{[2′-(1H-tetrazol-5-yl)biphenyl-4-yl]methyl}-6-butyl-3-(5-methoxypyrimidin-2-yl)-2-methylpyrimidin-4 (3H)-one] showed an IC50 of 2.7 nM. Turning to `CCCCc1nc(C)n(-c2ncc(O)cn2)c(=O)c1Cc1ccc(-c2ccccc2-c2nnn[nH]2)cc1` [Example 20, 5-{[2′-(1H-tetrazol-5-yl)biphenyl-4-yl]methyl}-6-butyl-3-(5-hydroxypyrimidin-2-yl)-2-methylpyrimidin-4 (3H)-one], the IC50 worked out at 6.3 nM. Against the preceding molecule, the IC50 is about 2.3-fold higher.

Regarding `CCCCc1nc(C)n(-c2ncc(OCCCO)cn2)c(=O)c1Cc1ccc(-c2ccccc2-c2nnn[nH]2)cc1` [Example 25, 5-{[2′-(1H-tetrazol-5-yl)biphenyl-4-yl]methyl}-6-butyl-3-[5-(3-hydroxypropoxy)pyrimidin-2-yl]-2-methylpyrimidin-4 (3H)-one], the IC50 amounted to 24 nM. `CCCCc1nc(C)n(-c2ncc(OCCS(C)(=O)=O)cn2)c(=O)c1Cc1ccc(-c2ccccc2-c2nnn[nH]2)cc1` [Example 27, 5-{[2′-(1H-tetrazol-5-yl)biphenyl-4-yl]methyl}-6-butyl-2-methyl-3-{5-[2-(methylsulfonyl)ethoxy]pyrimidin-2-yl}pyrimidin-4 (3H)-one]: the IC50 worked out at 5 nM. Compared with the last molecule, the IC50 is about 4.8-fold lower. In the case of `CCCCc1nc(C)n(-c2ncc(OC3CCC(=O)CC3)cn2)c(=O)c1Cc1ccc(-c2ccccc2-c2nnn[nH]2)cc1` [Example 29, 5-{[2′-(1H-tetrazol-5-yl)biphenyl-4-yl]methyl}-6-butyl-2-methyl-3-[5-(4-oxocyclohexyloxy)pyrimidin-2-yl]pyrimidin-4 (3H)-one], the IC50 is 7.7 nM. Against the preceding molecule, the IC50 is about 1.5-fold higher. To `CCCCc1nc(C)n(-c2nc(Cl)cc(Cl)n2)c(=O)c1Cc1ccc(-c2ccccc2-c2nnn[nH]2)cc1` [Example 30, 5-{[2′-(1H-tetrazol-5-yl)biphenyl-4-yl]methyl}-6-butyl-3-(4,6-dichloropyrimidin-2-yl)-2-methylpyrimidin-4 (3H)-one] belongs 20 nM; to `CCCCc1nc(C)n(-c2ncc(OCc3nc(-c4ccccc4)oc3C)cn2)c(=O)c1Cc1ccc(-c2ccccc2-c2nnn[nH]2)cc1` [Example 31], 338 nM; to `CCCCc1nc(C)n(-c2ncc(OCc3nc(-c4ccc(Br)o4)oc3C)cn2)c(=O)c1Cc1ccc(-c2ccccc2-c2nnn[nH]2)cc1` [Example 32, 5-{[2′-(1H-tetrazol-5-yl)biphenyl-4-yl]methyl}-3-{5-{[2-(5-bromofuran-2-yl)-5-methyloxazol-4-yl]methoxy}pyrimidin-2-yl}-6-butyl-2-methylpyrimidin-4 (3H)-one], 428 nM. Regarding `CCCCc1nc(C)n(-c2ncc(OCc3nc(-c4ccco4)oc3C)cn2)c(=O)c1Cc1ccc(-c2ccccc2-c2nnn[nH]2)cc1` [Example 33, 5-{[2′-(1H-tetrazol-5-yl)biphenyl-4-yl]methyl}-6-butyl-3-{5-{[2-(furan-2-yl)-5-methyloxazol-4-yl]methoxy}pyrimidin-2-yl}-2-methylpyrimidin-4 (3H)-one], the IC50 was 956 nM. Consider `CCCCc1nc(C)n(-c2ncc(OCc3nc(-c4ccc5ccccc5c4)oc3C)cn2)c(=O)c1Cc1ccc(-c2ccccc2-c2nnn[nH]2)cc1` [Example 34, 5-{[2′-(1H-tetrazol-5-yl)biphenyl-4-yl]methyl}-6-butyl-2-methyl-3-{5-{[5-methyl-2-(naphthalen-2-yl)oxazol-4-yl]methoxy}pyrimidin-2-yl}-pyrimidin-4 (3H)-one], for which the IC50 was 754 nM.

Molecule `CCCCc1nc(C)n(-c2ncc(OCCc3nc(-c4ccccc4)oc3C)cn2)c(=O)c1Cc1ccc(-c2ccccc2-c2nnn[nH]2)cc1` [Example 35, 5-{[2′-(1H-tetrazol-5-yl)biphenyl-4-yl]methyl}-6-butyl-2-methyl-3-{5-[2-(5-methyl-2-phenyloxazol-4-yl)ethoxy]pyrimidin-2-yl}pyrimidin-4 (3H)-one] displayed an IC50 of 347 nM. This IC50 lies about 2.2-fold lower than the previous one. Molecule `CCCCc1nc(C)n(-c2ncc(OCC(=O)OCC)cn2)c(=O)c1Cc1ccc(-c2ccccc2-c2nnn[nH]2)cc1` [Example 37] had an IC50 of 25.2 nM. To `CCCCc1nc(C)n(-c2ncc(OCC(=O)O)cn2)c(=O)c1Cc1ccc(-c2ccccc2-c2nnn[nH]2)cc1` [Example 38, 2-{2-{5-{[2′-(1H-tetrazol-5-yl)biphenyl-4-yl]methyl}-4-butyl-2-methyl-6-oxopyrimidin-1(6H)-yl}pyrimidin-5-yloxy}acetic acid] belongs 6.5 nM; to `CCCCc1nc(C)n(-c2ncc(OCC(N)=O)cn2)c(=O)c1Cc1ccc(-c2ccccc2-c2nnn[nH]2)cc1` [Example 39, 2-{2-{5-{[2′-(1H-tetrazol-5-yl)biphenyl-4-yl]methyl}-4-butyl-2-methyl-6-oxopyrimidin-1(6H)-yl}pyrimidin-5-yloxy}acetamide], 1 nM.

The molecule `CCCCc1nc(C)n(-c2ncc(OCC(=O)NCC)cn2)c(=O)c1Cc1ccc(-c2ccccc2-c2nnn[nH]2)cc1` [Example 40, 2-{2-{5-{[2′-(1H-tetrazol-5-yl)biphenyl-4-yl]methyl}-4-butyl-2-methyl-6-oxopyrimidin-1(6H)-yl}pyrimidin-5-yloxy}-N-ethylacetamide] had an IC50 of 5.9 nM. As for `CCCCc1nc(C)n(-c2ncc(OCC(=O)N(CC)CC)cn2)c(=O)c1Cc1ccc(-c2ccccc2-c2nnn[nH]2)cc1` [Example 41, 2-{2-{5-{[2′-(1H-tetrazol-5-yl)biphenyl-4-yl]methyl}-4-butyl-2-methyl-6-oxopyrimidin-1(6H)-yl}pyrimidin-5-yloxy}-N,N-diethylacetamide], half-maximal inhibition (IC50) was put at 8.7 nM. In the case of `CCCCc1nc(C)n(-c2ncc(OC(Cc3ccccc3)C(=O)O)cn2)c(=O)c1Cc1ccc(-c2ccccc2-c2nnn[nH]2)cc1` (centres unmarked) [Example 43, 2-{2-{5-{[2′-(1H-tetrazol-5-yl)biphenyl-4-yl]methyl}-4-butyl-2-methyl-6-oxopyrimidin-1(6H)-yl}pyrimidin-5-yloxy}-3-phenylpropionic acid], the IC50 is 5.5 nM. `CCCCc1nc(C)n(-c2ncc(OC(C(N)=O)c3ccccc3)cn2)c(=O)c1Cc1ccc(-c2ccccc2-c2nnn[nH]2)cc1` (centres unmarked) [Example 44, 2-{2-{5-{[2′-(1H-tetrazol-5-yl)biphenyl-4-yl]methyl}-4-butyl-2-methyl-6-oxopyrimidin-1(6H)-yl}pyrimidin-5-yloxy}-2-phenylacetamide]: the IC50 is 963 nM. For the molecule `CCCCc1nc(C)n(-c2ncc(OCCCC(=O)OCC)cn2)c(=O)c1Cc1ccc(-c2ccccc2-c2nnn[nH]2)cc1` [Example 45, ethyl 4-{2-{5-{[2′-(1H-tetrazol-5-yl)biphenyl-4-yl]methyl}-4-butyl-2-methyl-6-oxopyrimidin-1(6H)-yl}pyrimidin-5-yloxy}butanoate], the IC50 is 242 nM. For `CCCCc1nc(C)n(-c2ncc(OCCCC(=O)O)cn2)c(=O)c1Cc1ccc(-c2ccccc2-c2nnn[nH]2)cc1` [Example 46, 4-{2-{5-{[2′-(1H-tetrazol-5-yl)biphenyl-4-yl]methyl}-4-butyl-2-methyl-6-oxopyrimidin-1(6H)-yl}pyrimidin-5-yloxy}butanoic acid], the IC50 is 4.3 nM. To `CCCCc1nc(C)n(-c2ncc(OCCCC(=O)NC)cn2)c(=O)c1Cc1ccc(-c2ccccc2-c2nnn[nH]2)cc1` [Example 48, 4-{2-{5-{[2′-(1H-tetrazol-5-yl)biphenyl-4-yl]methyl}-4-butyl-2-methyl-6-oxopyrimidin-1(6H)-yl}pyrimidin-5-yloxy}-N-methylbutanamide] belongs 9.9 nM.

These data come from patent US8664226B2, “Compound having 3-heteroarylpyrimidin-4-(3H)-one structure and pharmaceutical preparation containing same” (Kowa Company, Ltd., priority 2009, dated 2014).
